Experimental data published in PMC3824214, “A Novel Factor Xa-Inhibiting Peptide from Centipedes Venom” (International Journal of Peptide Research and Therapeutics, 2013).
“And” between values parts separate entries of the source, which are not always exact repeats. Equal values may be shown once. Read-outs that look alike come from different tables or passages of the source. Marks after values point to notes of the source that are not given here.

How the values were obtained:
whole blood clotting = assay: Whole blood clotting time in vivo, capillary glass tube method; design: species or system mice; conditions: for Effect on whole blood clotting time: TNGYT 10 and 20 mg/kg, heparin 20 mg/kg, versus control group, P < 0.01; for CT (clotting time): six per group, mean ± SE, saline 273.2 s
Experimental: Whole blood clotting time (CT) in mice was measured by capillary glass tube method (Li et al. [2004]). Mice (18–22 g body weight) were divided into four groups (both sexes, six per group). Two groups were received intravenous injection of 20 and 10 mg/kg body weight of the purified peptide for four consecutive days. Other groups were received normal saline and 20 mg/kg body weight of heparin (the positive control), respectively. Fifteen minutes after the last administration (positive control after 2 h), blood samples were collected through the retro-orbital plexus with a glass capillary and kept on a slide to allow for clotting. Stirring the blood with a dry needle every 30 s until needle wire can provoke a fibrous protein, when is defined as clotting time.

bleeding time = assay: Bleeding time in vivo, tail cut; design: species or system ICR mice; conditions: for BT (bleeding time): 6 animals/group, mean ± SE, saline 315.2 s
Experimental: The mice (both sexes, 18–22 g) were randomly divided into four groups. The samples were intravenously injected (10 or 20 mg/kg) in ICR mice (6 animals/group) once a day in four consecutive days. Fifteen minutes after the last administration (positive control after 2 h), the mice tail was marked with a tag in the distance of 3 mm to after peak, then cut in the mark. Then the tip of the tail was immersed in saline at 37 °C. Record the time from cutting the tip of the tail to stopping bleeding, the interval was called bleeding time (Kogushi et al. [2011]). Heparin was used as positive control, and 0.9 % saline as model control.

[1] = tested on: normal citrated PPP (platelet poor plasma); assay: in vitro PT clotting assay; assay type: biochemical, ICR mice; conditions: sample diluted in PBS pH 8.34, mouse PPP, 3 min at 37 °C, triplicates, mean ± SE
Experimental: (§1) Blood was drawn by Eyeball from ICR mice. The blood was separately centrifuged at 2,500×g for 10 min to obtain platelet poor plasma (PPP). For the in vitro aPTT assay, normal citrated PPP (50 μl) was incubated with sample solution (8, 6, 4, 2, 1 mg/ml, previously diluted in PBS, pH 8.34, 50 μl) and 100 μl aPTT reagent for 3 min at 37 °C. Clotting time was immediately recorded after the addition of 100 μl of 20 mM CaCl2. For the in vitro PT assay, normal citrated PPP (25 μl) was incubated with sample solution (8, 6, 4, 2, 1 mg/ml, previously diluted in PBS, pH 8.34, 25 μl) for 3 min at 37 °C. Clotting time was immediately recorded after the addition of 50 μl of PT reagent (Majdoub et al. [2009]). All coagulation assays were performed in triplicates. Heparin was used as a positive control, and PBS (pH 8.34) as model control. For ex vivo coagulation assays, samples were dissolved in saline and were intravenously injected (10 or 20 mg/kg) in ICR mice (6 animals/group). Five and 24 h after drug administration, blood was collected (drawn by eyeball), immediately centrifuged (3,000 rpm, 15 min), and the plasma was used to measure the aPTT and PT as previously described (Batista et al. [2010]).

[2] = tested on: normal citrated PPP (platelet poor plasma); assay type: biochemical, ICR mice; conditions: for APTT: sample diluted in PBS pH 8.34, mouse PPP, 3 min at 37 °C, triplicates, mean ± SE
Experimental: as §1

[3] = tested on: plasma of treated mice (aPTT); assay: ex vivo aPTT assay; assay type: in vivo, ICR mice; conditions: for APTT: ex vivo, ICR mice, 6 animals/group, mean ± SE
Experimental: as §1

human FXa = biological target: T1, human FXa (Homo sapiens, UniProt P00742); assay: FXa inhibition assay, chromogenic substrate S-2222; assay type: biochemical
T1 construct: Purified human FXa; purchased HYPHEN BioMed (Neuvile sur Oise, France)
Text: Sephadex G-50 was obtained from Pharmacia (Uppsala, Sweden). Purified human FXa and chromogenic substrate of FXa (S2222) were purchased from HYPHEN BioMed (Neuvile sur Oise, France). Mice of both sexes were from Qinglongshan animal center (Nanjing, Jiangsu Province, China). All the animal protocols were approved by the Animal Care and Use Committee at China Pharmaceutical University. All other chemicals and reagents were at analytical grade.
Chromogenic substrate method was used to measure the FXa-inhibiting activity. Inhibition was determined by FXa residual activity on the chromogenic substrate BIOPHEN CS-11 (S-2222) (22), which liberates the chromophoric group pNA (p-nitroaniline) (van Wijk and Smit [1984]). Different concentrations of the peptide (5–60 mg/ml) were incubated with FXa for 30 min at 37 °C in PBS (pH 8.34). The reaction was initiated by adding the substrate into the peptide solution (Ibrahima et al. [2001]). The absorbance at 405 nm was recorded every 0.5 min in 5 min. In A–t curve, the curve slope was considered as reaction rate (v).
Inhibition rate(%)=V0- Vi/V0×100%, V0 is the rate of PBS (pH 8.34, model control), and Vi is the rate of peptide.

[4] = tested on: plasma of treated mice (PT); assay: ex vivo PT assay; assay type: in vivo, ICR mice; conditions: for PT: ex vivo, ICR mice, 6 animals/group, mean ± SE
Experimental: as §1

[5] = from S. subspinipes mutilans; ref Kong et al. [2013]; cited from earlier work
Text: The centipede contains many bioactive components, including 5-hydroxytryptamine, histamine, lipids, polysaccharides, and various enzymes (e.g. proteinases and esterases) (Knysak et al. [1998]; Gomes et al. [1983]). They have been widely used as traditional folk medicine to treat thrombotic diseases in China (Pemberton [1999]) for several hundred years. […] Wu et al. ([2009]) found centipede acidic protein (CAP) signif ...

T1 sequence (P00742 235-488 limits assumed): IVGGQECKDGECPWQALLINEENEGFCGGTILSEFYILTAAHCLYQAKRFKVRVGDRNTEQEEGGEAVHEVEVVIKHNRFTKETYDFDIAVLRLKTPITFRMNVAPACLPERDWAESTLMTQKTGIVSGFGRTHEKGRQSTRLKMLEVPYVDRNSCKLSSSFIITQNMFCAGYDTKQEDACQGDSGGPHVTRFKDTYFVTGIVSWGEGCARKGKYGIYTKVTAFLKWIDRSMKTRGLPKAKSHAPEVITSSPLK
T1 sequence (P00742 41-179 partner limits assumed): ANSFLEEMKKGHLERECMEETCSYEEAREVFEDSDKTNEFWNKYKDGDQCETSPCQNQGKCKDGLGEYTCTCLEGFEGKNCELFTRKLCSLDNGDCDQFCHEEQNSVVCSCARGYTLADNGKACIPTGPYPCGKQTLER

Substance: Heparin [reference compound]
- Effect on whole blood clotting time (whole blood clotting): significantly prolong whole blood clotting time
- CT (clotting time) (whole blood clotting; positive control 20 mg/kg, 2 h after administration, mice): 718.8 ± 60.15 s
- BT (bleeding time) (bleeding time; positive control 20 mg/kg, 2 h after last administration): 804.3 ± 87.7 s
- PT ([1]; 1 mg/ml): >60.0** s
- APTT ([2]; in vitro, 1 mg/ml): >60.0** s

Substance: Thr-Asn-Gly-Tyr-Thr (TNGYT)
- CT (clotting time) (whole blood clotting; 10 mg/kg i.v., four consecutive days, 15 min after last administration, mice): 389.0 ± 35.74 s
- CT (clotting time) (whole blood clotting; 20 mg/kg i.v., four consecutive days, 15 min after last administration, mice): 463.0 ± 48.8 s
- Effect on whole blood clotting time (whole blood clotting): significantly prolong whole blood clotting time
- Effect in prolonging the clotting time compared to heparin (whole blood clotting; same dose of 20 mg/kg, i.v., mice): about 50%
- BT (bleeding time) (bleeding time; 10 mg/kg i.v. once a day, four consecutive days, 15 min after last administration): 447.5 ± 78.1 s
- BT (bleeding time) (bleeding time; 20 mg/kg i.v. once a day, four consecutive days, 15 min after last administration): 549.7 ± 60.9 s
- Effect on bleeding time (bleeding time; 10 and 20 mg/kg, versus model control, P < 0.01): significantly prolong the bleeding time
- Risk of bleeding relative to heparin (bleeding time; equal dose 20 mg/kg, inferred from bleeding time): lower than that of heparin
- Alteration of aPTT ex vivo ([3]; 10 or 20 mg/kg i.v., 5 and 24 h, mice): increases in the aPTT were observed
- APTT ([3]; 5 h after 10 mg/kg i.v., saline 49.0 s): 59.0 ± 2.0 s
- APTT ([3]; 5 h after 20 mg/kg i.v., saline 49.0 s): 65.7 ± 3.1 s
- APTT ([3]; 24 h after 10 mg/kg i.v., saline 47.0 s): 49.3 ± 1.5 s
- APTT ([3]; 24 h after 20 mg/kg i.v., saline 47.0 s): 51.3 ± 2.3 s
- PT ([1]; 1 mg/ml): 14.7 ± 0.6 s
- PT ([1]; 2 mg/ml): 15.3 ± 1.5 s
- PT ([1]; 4 mg/ml): 17.7 ± 0.6 s
- PT ([1]; 8 mg/ml, 0.9 % saline control 12.7 s): 23.3 s and 23.3 ± 1.5 s
- Biological activity, natural vs synthesized peptide (aPTT and PT assays) ([2]; aPTT and PT assays, data in Table 1 of Supplementary Data): the same biological activity
- Potency relative to heparin, fold lower ([2]; in vitro assay, lower than heparin): at least 8 -folded
- APTT ([2]; in vitro, 1 mg/ml): 36.7 ± 1.5 s
- APTT ([2]; in vitro, 2 mg/ml): 44.0 ± 2.0 s
- APTT ([2]; in vitro, 4 mg/ml): 44.0 ± 1.0 s
- APTT ([2]; in vitro, 8 mg/ml, 0.9 % saline control 33.3 s): 57 s and 57.0 ± 2.0 s
- Action on aPTT and PT relative to heparin ([2]; in vitro, aPTT and PT, versus heparin (1 mg/ml)): lower than the positive control heparin
- Inhibition of FXa activity (human FXa; 60 mg/ml, 30 min at 37 °C, PBS pH 8.34, substrate S-2222, absorbance 405 nm): 59.75%
- Inhibition rate of FXa relative to other protein/peptide FXa inhibitors (human FXa; versus Ac-AP-12, Amblyomin-X, Nymphal FXa inhibitor, AduNAP4): lower than FXa inhibitors mentioned above
- Alteration of PT ex vivo ([4]; 10 or 20 mg/kg i.v., mice): no significant alterations were observed in the PT
- PT ([4]; 5 h after 10 mg/kg i.v., saline 15.7 s): 16.7 ± 0.6 s
- PT ([4]; 24 h after 10 mg/kg i.v., saline 17.7 s): 18.7 ± 1.5 s
- PT ([4]; 24 h after 20 mg/kg i.v., saline 17.7 s): 18.3 ± 0.6 s

Substance: Ser-Gln-Leu (SQL) [anti-thrombotic peptide isolated from S. subspinipes mutilans]
- Anti-thrombotic activity [5]: anti-thrombotic
